Measurements: ChEMBL document CHEMBL1250443, “Microarray-based method for monitoring yeast overexpression strains reveals small-molecule targets in TOR pathway” (Nat Chem Biol, 2006)

Key:
Saccharomyces cerevisiae [1] = test: Increase of GUF1 gene expression in wild-type Saccharomyces cerevisiae transformed with overexpression plasmids by microarray; type: functional
Saccharomyces cerevisiae [2] = test: Increase of FMP38 gene expression in wild-type Saccharomyces cerevisiae transformed with overexpression plasmids by microarray; type: functional
Saccharomyces cerevisiae [3] = test: Increase of HMI1 gene expression in wild-type Saccharomyces cerevisiae transformed with overexpression plasmids by microarray; type: functional
Saccharomyces cerevisiae [4] = test: Increase of YRR1 gene expression in wild-type Saccharomyces cerevisiae transformed with overexpression plasmids by microarray; type: functional
Saccharomyces cerevisiae [5] = test: Increase of YDR514C gene expression in wild-type Saccharomyces cerevisiae transformed with overexpression plasmids by microarray; type: functional
Saccharomyces cerevisiae [6] = test: Increase of SUV3 gene expression in wild-type Saccharomyces cerevisiae transformed with overexpression plasmids by microarray; type: functional
Saccharomyces cerevisiae [7] = test: Increase of PET111 gene expression in wild-type Saccharomyces cerevisiae transformed with overexpression plasmids by microarray; type: functional
Saccharomyces cerevisiae [8] = test: Increase of MDL1 gene expression in wild-type Saccharomyces cerevisiae transformed with overexpression plasmids by microarray; type: functional
Saccharomyces cerevisiae [9] = test: Increase of MRPS28 gene expression in wild-type Saccharomyces cerevisiae transformed with overexpression plasmids by microarray; type: functional
Saccharomyces cerevisiae [10] = test: Increase of MAM1 gene expression in wild-type Saccharomyces cerevisiae transformed with overexpression plasmids by microarray; type: functional
Saccharomyces cerevisiae [11] = test: Decrease of FET4 gene expression in wild-type Saccharomyces cerevisiae transformed with overexpression plasmids by microarray; type: functional
Saccharomyces cerevisiae [12] = test: Decrease of RIM11 gene expression in wild-type Saccharomyces cerevisiae transformed with overexpression plasmids by microarray; type: functional
Saccharomyces cerevisiae [13] = test: Decrease of HOS1 gene expression in wild-type Saccharomyces cerevisiae transformed with overexpression plasmids by microarray; type: functional
Saccharomyces cerevisiae [14] = test: Decrease of YDR222W gene expression in wild-type Saccharomyces cerevisiae transformed with overexpression plasmids by microarray; type: functional
Saccharomyces cerevisiae [15] = test: Decrease of YKR75C gene expression in wild-type Saccharomyces cerevisiae transformed with overexpression plasmids by microarray; type: functional
Saccharomyces cerevisiae [16] = test: Decrease of YJL051W gene expression in wild-type Saccharomyces cerevisiae transformed with overexpression plasmids by microarray; type: functional
Saccharomyces cerevisiae [17] = test: Decrease of SGN1 gene expression in wild-type Saccharomyces cerevisiae transformed with overexpression plasmids by microarray; type: functional
Saccharomyces cerevisiae [18] = test: Decrease of YMD8 gene expression in wild-type Saccharomyces cerevisiae transformed with overexpression plasmids by microarray; type: functional
[19] = biological target: T1, Translation factor GUF1, mitochondrial (Saccharomyces cerevisiae S288c, UniProt P46943); test: Inhibition of yeast Guf1
T1 sequence (P46943 whole entry): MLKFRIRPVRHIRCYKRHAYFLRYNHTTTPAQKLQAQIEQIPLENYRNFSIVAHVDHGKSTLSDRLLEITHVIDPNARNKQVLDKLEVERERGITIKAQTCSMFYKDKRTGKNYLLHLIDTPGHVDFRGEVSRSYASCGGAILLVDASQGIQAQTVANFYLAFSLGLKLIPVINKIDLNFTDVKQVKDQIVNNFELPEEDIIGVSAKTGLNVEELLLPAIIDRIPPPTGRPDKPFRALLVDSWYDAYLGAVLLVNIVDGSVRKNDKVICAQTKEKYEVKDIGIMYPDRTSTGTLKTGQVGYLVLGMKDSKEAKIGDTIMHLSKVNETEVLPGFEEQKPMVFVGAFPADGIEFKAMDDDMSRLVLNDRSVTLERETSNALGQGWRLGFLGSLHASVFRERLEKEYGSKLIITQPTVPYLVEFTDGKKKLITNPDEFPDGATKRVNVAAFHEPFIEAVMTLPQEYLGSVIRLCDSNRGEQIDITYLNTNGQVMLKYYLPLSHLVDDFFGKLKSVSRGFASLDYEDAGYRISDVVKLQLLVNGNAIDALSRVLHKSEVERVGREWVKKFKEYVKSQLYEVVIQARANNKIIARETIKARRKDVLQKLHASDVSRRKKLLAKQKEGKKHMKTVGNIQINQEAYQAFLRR

Which results are given for `O=C1C(Nc2ccccc2)=CC(=O)c2ncccc21`?
fold change (FC) (Saccharomyces cerevisiae [1]): 5; fold change (FC) (Saccharomyces cerevisiae [2]): 3.1; fold change (FC) (Saccharomyces cerevisiae [3]): 2.9; fold change (FC) (Saccharomyces cerevisiae [4]): 2.8; fold change (FC) (Saccharomyces cerevisiae [5]): 2.7; fold change (FC) (Saccharomyces cerevisiae [6]): 2.4; fold change (FC) (Saccharomyces cerevisiae [7]): 2.3; fold change (FC) (Saccharomyces cerevisiae [8]): 2.2; fold change (FC) (Saccharomyces cerevisiae [9]): 2.1; fold change (FC) (Saccharomyces cerevisiae [10]): 2.1; fold change (FC) (Saccharomyces cerevisiae [11]): -4.3; fold change (FC) (Saccharomyces cerevisiae [12]): -3.3; fold change (FC) (Saccharomyces cerevisiae [13]): -2.4; fold change (FC) (Saccharomyces cerevisiae [14]): -2.4; fold change (FC) (Saccharomyces cerevisiae [15]): -2.1; fold change (FC) (Saccharomyces cerevisiae [16]): -2.1; fold change (FC) (Saccharomyces cerevisiae [17]): -2.1; fold change (FC) (Saccharomyces cerevisiae [18]): -2; IC50 [19]: 300 µM
